# From patent US4098778A, “β-Endorphin analog” (Hoffmann-La Roche Inc., priority 1977, dated 1978)
# How the values were obtained:
# [1] = test system: mice; assay: Analgesic activity in mice by the tail-flick method, peptide injected icv; assay type: in vivo; conditions: for In vivo analgesic activity Relative Potency: molar basis, βc-endorphin = 100; for In vivo analgesic activity AD50: tail-flick, male ICR mice, (95% confidence limit)
# Procedure: The analgesic activity of the synthetic products was assessed in mice by the tail-flick method of D'Amour and Smith J. Pharmacol. Exp. Ther. 72, 74 (1941). Male ICR mice weighing 25-30 g were used. The peptide was injected icv in a volume of 5 μl as described by Haley and McCormick, Br. J. Pharmacol. 12, 12 (1957). To evaluate the tail-flick response, a control latency (T0) was obtained from the mean of two latencies determined prior to the peptide injection; the test latencies (T1) were determined at various times after injection for each animal. "Percent analgesia" was calculated as [(T1 -T0)/(T2 -T0)] × 100; where the cutoff time (T2) was 10 sec. With a twofold increase in latency of reaction time of the reponse as a quantal index of inhibition, the median antinociceptive dose (AD50) and 95% confidence limits were calculated as described by Litchfield and Wilcoxon, J. Pharmacol. Exp. Ther. 96, 99 (1949).
# [2] = test system: guinea pig ileum; assay: In vitro opiate activity, guinea pig ileum method of Kosterlitz et al.; assay type: cell-based; conditions: for In vitro opiate activity: guinea pig ileum, βc-endorphin = 100
# From the text: The opiate activity of the peptide of the invention, the parent peptide and other fragment analogs thereof as assayed in vitro by the guinea pig ileum method of Kosterlitz et al., Brit. J. Pharmacol. 39, 398 (1970) is seen in Table 2 below.
Substance,In vivo analgesic activity Relative Potency [1],In vivo analgesic activity AD50 ([1]; icv),In vitro opiate activity [2],"inhibition of the tail-flick response ([1]; doses of 42.5 and 85 μg, icv, mice)",analgesic activity (tail flick method) ([1]; mice),reversal of activity by naloxone ([2]; activity as assayed in vitro),potency relative to βc-endorphin as assayed in vitro ([2]; of βc-endorphin) [%]
βh -Endorphin-(1-5)-(16-31),0.3,25.1(16.8-37.1) μg/mouse,135,–,–,–,–
"βc -endorphin (YGGFMTSEKSQTPLVTLFKNAIIKNAHKKGQ; Beta-endorphin; UniProt P01203 1-31, looked up) [parent peptide]",100,0.11 (0.07-0.17) μg/mouse,100,–,–,–,–
"βc -endorphin (6-31) (TSEKSQTPLVTLFKNAIIKNAHKKGQ; Beta-endorphin; UniProt P01203 6-31, looked up, fragment) [βc -Endorphin-(6-31)]",< 0.1,> 86 μg/mouse,4,slight inhibition of the tail-flick response,intrinsic measurable analgesic activity,not reversed by naloxone,4
βc -Endorphin-(1-5)-(28-31),< 0.1,> 86 μg/mouse,35,–,–,–,–
